Laboratory results reported in BindingDB's records for doi:10.1016/j.bmc.2017.06.015 (China Pharmaceutical University, 2017).

Assays:
[1] = Inhibition of ABCB1 in human K562/A02 cells assessed as potentiation of adriamycin-induced cytotoxicity by measuring ADR IC50 at 5 uM measured after 48 hrs by MTT assay (Rvb = 43.75 to 96.91 uM)
[2] = Inhibition of ABCB1 in human K562/A02 cells assessed as potentiation of adriamycin-induced cytotoxicity by measuring ADR IC50 at 2.5 uM measured after 48 hrs by MTT assay (Rvb = 43.75 uM)
[3] = Inhibition of ABCB1 in human K562/A02 cells assessed as potentiation of adriamycin-induced cytotoxicity by measuring ADR IC50 at 0.25 uM measured after 48 hrs by MTT assay (Rvb = 43.75 uM)
[4] = Inhibition of ABCB1 in human K562/A02 cells assessed as potentiation of adriamycin-induced cytotoxicity by measuring ADR IC50 measured after 48 hrs by MTT assay (Rvb = 51.34 +/- 5.1 uM)
[5] = Inhibition of ABCB1 in human K562/A02 cells assessed as potentiation of adriamycin-induced cytotoxicity by measuring ADR IC50 treated for 48 hrs followed by compound washout measured after 6 hrs by MTT assay (Rvb = 51.34 +/- 5.1 uM)
[6] = Inhibition of ABCB1 in human K562/A02 cells assessed as potentiation of adriamycin-induced cytotoxicity by measuring ADR IC50 at 0.1 uM measured after 48 hrs by MTT assay (Rvb = 43.75 uM)
[7] = Inhibition of ABCB1 in human K562/A02 cells assessed as potentiation of adriamycin-induced cytotoxicity by measuring ADR IC50 treated for 48 hrs followed by compound washout measured after 24 hrs by MTT assay (Rvb = 51.34 +/- 5.1 uM)
[8] = biological target: ATP-dependent translocase ABCB1 (Homo sapiens, UniProt P08183); assay: Inhibition of ABCB1 in human K562/A02 cells assessed as potentiation of adriamycin-induced cytotoxicity by measuring ADR IC50 at 5 uM measured after 48 hrs by MTT assay (Rvb = 43.75 to 96.91 uM)
[9] = Inhibition of ABCB1 in human K562/A02 cells assessed as potentiation of adriamycin-induced cytotoxicity by measuring ADR IC50 treated for 48 hrs followed by compound washout measured immediately by MTT assay (Rvb = 51.34 +/- 5.1 uM)
[10] = Inhibition of ABCB1 in human K562/A02 cells assessed as potentiation of adriamycin-induced cytotoxicity by measuring ADR IC50 at 0.5 uM measured after 48 hrs by MTT assay (Rvb = 43.75 uM)
[11] = Inhibition of ABCB1 in human K562/A02 cells assessed as potentiation of adriamycin-induced cytotoxicity by measuring ADR IC50 at 1 uM measured after 48 hrs by MTT assay (Rvb = 43.75 uM)
[12] = Inhibition of ABCB1 in human K562/A02 cells assessed as potentiation of adriamycin-induced cytotoxicity by measuring ADR IC50 at 0.025 uM measured after 48 hrs by MTT assay (Rvb = 43.75 uM)
[13] = Inhibition of ABCB1 in human K562/A02 cells assessed as potentiation of adriamycin-induced cytotoxicity by measuring ADR IC50 treated for 48 hrs followed by compound washout measured after 12 hrs by MTT assay (Rvb = 51.34 +/- 5.1 uM)
[14] = Inhibition of ABCB1 in human K562/A02 cells assessed as potentiation of adriamycin-induced cytotoxicity measured after 48 hrs by MTT assay
[15] = Inhibition of ABCB1 in human K562/A02 cells assessed as potentiation of adriamycin-induced cytotoxicity by measuring ADR IC50 at 0.05 uM measured after 48 hrs by MTT assay (Rvb = 43.75 uM)

Sequence of ATP-dependent translocase ABCB1 (P08183 whole entry): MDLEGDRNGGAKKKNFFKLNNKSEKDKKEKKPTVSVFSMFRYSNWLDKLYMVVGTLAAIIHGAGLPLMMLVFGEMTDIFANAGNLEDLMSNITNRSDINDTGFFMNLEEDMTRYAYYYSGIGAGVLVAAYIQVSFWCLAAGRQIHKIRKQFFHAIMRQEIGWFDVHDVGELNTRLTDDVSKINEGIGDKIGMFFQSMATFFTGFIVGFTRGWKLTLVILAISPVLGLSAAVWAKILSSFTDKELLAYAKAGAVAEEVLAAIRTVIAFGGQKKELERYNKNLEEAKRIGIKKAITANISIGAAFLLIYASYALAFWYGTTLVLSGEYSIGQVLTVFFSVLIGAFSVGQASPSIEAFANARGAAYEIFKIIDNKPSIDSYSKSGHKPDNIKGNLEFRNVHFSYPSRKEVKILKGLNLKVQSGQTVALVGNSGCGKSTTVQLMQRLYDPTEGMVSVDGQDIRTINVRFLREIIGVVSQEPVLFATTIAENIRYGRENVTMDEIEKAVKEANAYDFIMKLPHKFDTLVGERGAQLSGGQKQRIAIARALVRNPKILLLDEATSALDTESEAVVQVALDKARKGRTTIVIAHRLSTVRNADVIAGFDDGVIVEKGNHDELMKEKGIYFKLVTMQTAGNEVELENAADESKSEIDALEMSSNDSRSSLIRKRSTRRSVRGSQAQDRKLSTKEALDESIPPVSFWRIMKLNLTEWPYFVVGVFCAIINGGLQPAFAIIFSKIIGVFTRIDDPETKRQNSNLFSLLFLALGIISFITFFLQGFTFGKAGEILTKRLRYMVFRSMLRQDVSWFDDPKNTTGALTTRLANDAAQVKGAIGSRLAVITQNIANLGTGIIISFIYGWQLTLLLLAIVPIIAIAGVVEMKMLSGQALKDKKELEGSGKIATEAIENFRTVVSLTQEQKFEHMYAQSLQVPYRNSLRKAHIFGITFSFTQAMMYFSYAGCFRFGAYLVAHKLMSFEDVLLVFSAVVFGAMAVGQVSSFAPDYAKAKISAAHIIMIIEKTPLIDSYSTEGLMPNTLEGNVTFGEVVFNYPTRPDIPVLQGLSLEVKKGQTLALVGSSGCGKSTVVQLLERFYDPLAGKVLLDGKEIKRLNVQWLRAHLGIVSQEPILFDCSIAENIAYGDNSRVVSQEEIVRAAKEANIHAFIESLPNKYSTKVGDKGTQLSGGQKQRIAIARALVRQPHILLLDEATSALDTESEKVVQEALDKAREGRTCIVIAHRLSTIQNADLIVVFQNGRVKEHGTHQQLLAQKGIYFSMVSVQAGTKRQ

**Q.** With `COc1cc2c(cc1OC)CN(CCn1cc(COc3ccccc3C(=O)Nc3ccc([N+](=O)[O-])cc3)nn1)CC2` as the molecule, how does the IC50 [1] read?
**A.** 21.1 µM

**Q.** For `COc1cc2c(cc1OC)CN(CCn1cc(COc3ccccc3C(=O)Nc3ccc(C)cc3)nn1)CC2`, which IC50 [1] is on record?
**A.** 7.65 µM

**Q.** For `COc1cc2c(cc1OC)CN(CCn1cc(COc3ccccc3C(=O)Nc3cccc(Cl)c3)nn1)CC2`, which IC50 [1] is on record?
**A.** 22.8 µM

**Q.** Which IC50 [1] does the source give for `COc1cc2c(cc1OC)CN(CCn1cc(COc3ccccc3C(=O)Nc3ccc(Cl)cc3)nn1)CC2` here?
**A.** 6.93 µM

**Q.** With `COc1ccc(NC(=O)c2ccccc2OCc2cn(CCN3CCc4cc(OC)c(OC)cc4C3)nn2)cc1` as the molecule, how does the IC50 [1] read?
**A.** 8.38 µM

**Q.** For `COc1cc2c(cc1OC)CN(CCn1cc(COc3ccccc3C(=O)Nc3ccc(C(C)(C)C)cc3)nn1)CC2`, which IC50 [2] is on record?
**A.** 3.33 µM

**Q.** And the IC50 [3]?
**A.** 18.4 µM

**Q.** What about the IC50 [4] of the same molecule?
**A.** 1260 nM

**Q.** And the IC50 [5]?
**A.** 6.32 µM

**Q.** And the IC50 [6]?
**A.** 34.9 µM

**Q.** What about the IC50 [7] of the same molecule?
**A.** 17.2 µM

**Q.** What about the IC50 [8] of the same molecule?
**A.** 1.27 µM

**Q.** And the IC50 [9]?
**A.** 4.33 µM

**Q.** And the IC50 [10]?
**A.** 12.5 µM

**Q.** And the IC50 [11]?
**A.** 6.02 µM

**Q.** And the IC50 [12]?
**A.** 37.2 µM

**Q.** What about the IC50 [13] of the same molecule?
**A.** 10.3 µM

**Q.** And the EC50 [14]?
**A.** 256 nM

**Q.** What about the IC50 [15] of the same molecule?
**A.** 37.2 µM

**Q.** With `COc1cc2c(cc1OC)CN(CCn1cc(COc3ccccc3NC(=O)c3ccc(C(C)(C)C)cc3)nn1)CC2` as the molecule, how does the IC50 [1] read?
**A.** 3.42 µM

**Q.** For `COc1cc2c(cc1OC)CN(CCn1cc(COc3ccccc3C(=O)Nc3cccc(C)c3)nn1)CC2`, which IC50 [1] is on record?
**A.** 12.2 µM

**Q.** With `COc1ccc(NC(=O)c2ccccc2OCc2cn(CCN3CCc4cc(OC)c(OC)cc4C3)nn2)cc1OC` as the molecule, how does the IC50 [1] read?
**A.** 7.82 µM

**Q.** With `COc1cc2c(cc1OC)CN(CCn1cc(COc3ccccc3C(=O)Nc3ccc(OC(F)(F)F)cc3)nn1)CC2` as the molecule, how does the IC50 [1] read?
**A.** 4.52 µM

**Q.** With `COc1cc2c(cc1OC)CN(CCn1cc(COc3ccccc3C(=O)Nc3ccccc3[N+](=O)[O-])nn1)CC2` as the molecule, how does the IC50 [1] read?
**A.** 26.9 µM

**Q.** For `COc1cc2c(cc1OC)CN(CCn1cc(COc3ccccc3C(=O)Nc3cccc([N+](=O)[O-])c3)nn1)CC2`, which IC50 [1] is on record?
**A.** 27.7 µM

**Q.** Which IC50 [1] does the source give for `COc1cc2c(cc1OC)CN(CCn1cc(COc3ccccc3C(=O)Nc3ccc(F)cc3)nn1)CC2` here?
**A.** 8.29 µM

**Q.** Which IC50 [1] does the source give for `COc1cc2c(cc1OC)CN(CCn1cc(COc3ccccc3C(=O)Nc3cc(OC)c(OC)c(OC)c3)nn1)CC2` here?
**A.** 31.9 µM

**Q.** For `CCCCc1ccc(NC(=O)c2ccccc2OCc2cn(CCN3CCc4cc(OC)c(OC)cc4C3)nn2)cc1`, which IC50 [1] is on record?
**A.** 6.25 µM

**Q.** For `COc1cccc(NC(=O)c2ccccc2OCc2cn(CCN3CCc4cc(OC)c(OC)cc4C3)nn2)c1`, which IC50 [8] is on record?
**A.** 8.73 µM

**Q.** Which IC50 [4] does the source give for `COc1cc2c(cc1OC)CN(CCc1ccc(NC(=O)c3cc(OC)c(OC)cc3NC(=O)c3cnc4ccccc4c3)cc1)CC2` here?
**A.** 1600 nM

**Q.** And the IC50 [5]?
**A.** 4.97 µM

**Q.** What about the IC50 [7] of the same molecule?
**A.** 14.4 µM

**Q.** What about the IC50 [9] of the same molecule?
**A.** 3.02 µM

**Q.** And the IC50 [13]?
**A.** 8.28 µM

**Q.** And the IC50 [1]?
**A.** 1.97 µM

**Q.** For `COc1cc2c(cc1OC)CN(CCn1cc(COc3ccccc3C(=O)Nc3ccccc3)nn1)CC2`, which IC50 [1] is on record?
**A.** 25.5 µM
